This passage reports inhibition and IC50 results from ChEMBL document CHEMBL4130547, “Targeted Isolation of Monoterpene Indole Alkaloids from Palicourea sessilis” (J Nat Prod, 2017).

Assay [1] concerns the target Acetylcholinesterase (Electrophorus electricus) (UniProt O42275). As to the kind of experiment: Inhibition of Electrophorus electricus AChE at 50 uM using acetylthiocholine iodide as substrate measured after 10 mins by Ellman's method relative to control.
The target in assay [2] is Acetylcholinesterase (Electrophorus electricus, UniProt O42275). As to the kind of experiment: Inhibition of Electrophorus electricus AChE using acetylthiocholine iodide as substrate measured during 6 mins by Ellman's method.

Molecules are shown by their SMILES. pIC50: −log10 of the molar value.

Acetylcholinesterase, sequence (O42275 whole entry): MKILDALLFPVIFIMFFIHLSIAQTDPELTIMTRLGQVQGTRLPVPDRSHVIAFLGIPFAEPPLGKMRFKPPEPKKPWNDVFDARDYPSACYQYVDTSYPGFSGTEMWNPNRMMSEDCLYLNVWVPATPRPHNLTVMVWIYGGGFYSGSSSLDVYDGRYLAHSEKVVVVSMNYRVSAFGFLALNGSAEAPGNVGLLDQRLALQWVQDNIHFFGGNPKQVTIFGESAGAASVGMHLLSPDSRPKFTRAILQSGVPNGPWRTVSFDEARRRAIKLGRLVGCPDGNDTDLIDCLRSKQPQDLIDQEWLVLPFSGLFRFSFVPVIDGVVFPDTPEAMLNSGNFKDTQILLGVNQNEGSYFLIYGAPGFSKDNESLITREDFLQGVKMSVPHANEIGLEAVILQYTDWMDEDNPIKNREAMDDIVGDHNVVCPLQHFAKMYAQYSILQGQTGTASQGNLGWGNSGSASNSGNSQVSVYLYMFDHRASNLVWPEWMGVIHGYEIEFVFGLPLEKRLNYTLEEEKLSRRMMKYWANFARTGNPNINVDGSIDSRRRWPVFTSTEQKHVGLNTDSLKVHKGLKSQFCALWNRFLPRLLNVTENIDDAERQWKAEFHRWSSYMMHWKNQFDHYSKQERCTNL
Acetylcholinesterase (Electrophorus electricus), sequence (O42275 24-633 limits assumed): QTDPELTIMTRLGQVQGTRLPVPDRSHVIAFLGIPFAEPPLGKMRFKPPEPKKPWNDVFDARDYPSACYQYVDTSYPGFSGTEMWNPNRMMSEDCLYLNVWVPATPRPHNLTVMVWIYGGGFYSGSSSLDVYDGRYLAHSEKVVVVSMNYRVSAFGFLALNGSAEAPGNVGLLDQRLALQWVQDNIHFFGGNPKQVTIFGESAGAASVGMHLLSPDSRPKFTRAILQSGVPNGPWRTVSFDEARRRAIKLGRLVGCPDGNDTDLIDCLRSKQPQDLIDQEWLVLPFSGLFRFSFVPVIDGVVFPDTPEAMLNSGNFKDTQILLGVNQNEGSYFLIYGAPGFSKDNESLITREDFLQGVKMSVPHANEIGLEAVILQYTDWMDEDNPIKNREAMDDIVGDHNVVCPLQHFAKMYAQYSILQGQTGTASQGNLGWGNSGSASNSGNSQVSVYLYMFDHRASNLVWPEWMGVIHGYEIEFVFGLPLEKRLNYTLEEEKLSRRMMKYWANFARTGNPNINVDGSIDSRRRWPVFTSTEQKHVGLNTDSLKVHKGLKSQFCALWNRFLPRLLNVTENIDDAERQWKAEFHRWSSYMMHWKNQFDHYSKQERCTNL

The molecule `CNCCc1c[nH]c2ccccc12` yielded an inhibition in assay [1] of 49.8%.
Molecule `C=C[C@H]1CO[C@@H]2C[C@H]1C(=O)c1c3[nH]c4ccccc4c3cc[n+]12` gave a pIC50 in assay [2] of 5.47.
In assay [1], `CN1CCC2(O)c3ccccc3NC12` (centres undefined) displayed an inhibition of 53.7%.
In assay [2], `C=C[C@H]1CO[C@@H]2C[C@H]1Cc1c3[nH]c4ccccc4c3cc[n+]12` had a pIC50 of 5.00.
